Source: patent US12077503B2, “Substituted cyclic amides and their use as herbicides” (FMC CORPORATION, priority 2015, dated 2024)

Legend:
Format in all cases: in vivo
[1] = tested on: sedge, umbrella (small-flower umbrella sedge, Cyperus difformis); assay: Test B flooded paddy test; conditions: Flood; for Plant response rating, Sedge, Umbrella: 0 to 100 scale where 0 is no effect and 100 is complete control, 13 to 15 d
Method in brief: (§1)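 2-leaf plants; pots flooded 3 cm over soil; cpd added to paddy water; depth held; greenhouse 13–15 d; visual rating vs controls, 0 = no effect, 100 = complete control.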

[2] = tested on: barnyardgrass (Echinochloa crus-galli); assay: Test B flooded paddy test; conditions: Flood, 0 to 100 scale where 0 is no effect and 100 is complete control, 13 to 15 d
Method in brief: as §1

[3] = tested on: rice (Oryra sativa); assay: Test B flooded paddy test; conditions: Flood, 0 to 100 scale where 0 is no effect and 100 is complete control, 13 to 15 d
Method in brief: as §1

[4] = tested on: ducksalad (Heteranthera limosa); assay: Test B flooded paddy test; conditions: Flood, 0 to 100 scale where 0 is no effect and 100 is complete control, 13 to 15 d
Method in brief: as §1

[5] = tested on: giant foxtail (Setaria faberii); assay: Test A preemergence; conditions: for Plant response rating, Foxtail, Giant: preemergence; for Foxtail, Giant plant response rating (0 to 100 scale): Preemergence, 0 is no effect, 100 is complete control
Method in brief: (§2)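 In a loam soil and sand blend, planted seeds got a preemergence directed soil spray, and young plants at the one- to two-leaf stage, 2–10 cm high, got a postemergence application; ~10 d greenhouse hold; injury rated visually, 0 = none, 100 = complete control.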

[6] = tested on: wheat (Triticum aestivum); assay: Test A preemergence; conditions: for Plant response rating, Wheat: preemergence; for Wheat plant response rating (0 to 100 scale): Preemergence, 0 is no effect, 100 is complete control
Method in brief: as §2

[7] = tested on: morningglory (Ipomoea spp.); assay: Test A preemergence; conditions: for Plant response rating, Morningglory: preemergence; for Morningglory plant response rating (0 to 100 scale): Preemergence, 0 is no effect, 100 is complete control
Method in brief: as §2

[8] = tested on: pigweed (Amaranthus retroflexus); assay: Test A preemergence; conditions: for Plant response rating, Pigweed: preemergence; for Pigweed plant response rating (0 to 100 scale): Preemergence, 0 is no effect, 100 is complete control
[9] = tested on: barnyardgrass (Echinochloa crus-galli); assay: Test A preemergence; conditions: for Plant response rating, Barnyardgrass: preemergence; for Barnyardgrass plant response rating (0 to 100 scale): Preemergence, 0 is no effect, 100 is complete control
Method in brief: as §2

[10] = tested on: crabgrass, large (Digitaria sanguinalis); assay: Test A preemergence; conditions: for Plant response rating, Crabgrass, Large: preemergence; for Crabgrass, Large plant response rating (0 to 100 scale): Preemergence, 0 is no effect, 100 is complete control
Method in brief: as §2

[11] = tested on: velvetleaf (Abutilon theophrasti); assay: Test A preemergence; conditions: for Plant response rating, Velvetleaf: preemergence; for Velvetleaf plant response rating (0 to 100 scale): Preemergence, 0 is no effect, 100 is complete control
Method in brief: as §2

[12] = tested on: corn (Zea mays); assay: Test A preemergence; conditions: for Plant response rating, Corn: preemergence; for Corn plant response rating (0 to 100 scale): Preemergence, 0 is no effect, 100 is complete control
Method in brief: as §2

[13] = tested on: giant foxtail (Setaria faberii); assay: Test A postemergence
Method in brief: as §2

[14] = tested on: wheat (Triticum aestivum); assay: Test A postemergence
Method in brief: as §2

[15] = tested on: morningglory (Ipomoea spp.); assay: Test A postemergence
Method in brief: as §2

[16] = tested on: pigweed (Amaranthus retroflexus); assay: Test A postemergence
Method in brief: as §2

[17] = tested on: barnyardgrass (Echinochloa crus-galli); assay: Test A postemergence
Method in brief: as §2

[18] = tested on: crabgrass, large (Digitaria sanguinalis); assay: Test A postemergence
Method in brief: as §2

[19] = tested on: velvetleaf (Abutilon theophrasti); assay: Test A postemergence
Method in brief: as §2

[20] = tested on: corn (Zea mays); assay: Test A postemergence
Method in brief: as §2

[21] = 125 g ai/ha, 0 to 100 scale (0 no effect, 100 complete control)
[22] = 500 g ai/ha, postemergence, 0 to 100 scale, 0 no effect, 100 complete control
[23] = Postemergence, 125 g ai/ha, visual injury, 0 to 100 scale (0 no effect, 100 complete control), approx. 10 d
[24] = 125 g ai/ha, visual rating after approx. 10 d, 0 to 100 scale where 0 is no effect and 100 is complete control
[25] = 500 g ai/ha, 0 to 100 scale, 0 = no effect, 100 = complete control
[26] = 125 g ai/ha, postemergence, visual injury after approximately 10 d, 0 to 100 scale (0 no effect, 100 complete control)
[27] = 500 g ai/ha, postemergence, visual injury, 0 to 100 scale (0 no effect, 100 complete control), approx. 10 d

O=C1NCC(c2cccnc2)C1C(=O)Nc1ccccc1C(F)(F)F (racemic) [Compound 352]
0: Plant response rating, Sedge, Umbrella ([1]; 250 g ai/ha) | Plant response rating, Barnyardgrass ([2]; 250 g ai/ha) | Plant response rating, Rice ([3]; 250 g ai/ha) | Plant response rating, Ducksalad ([4]; 250 g ai/ha) | Plant response rating, Foxtail, Giant [5, 21] | Foxtail, Giant plant response rating (0 to 100 scale) ([5]; 500 g ai/ha) | Plant response rating, Wheat [6, 21] | Wheat plant response rating (0 to 100 scale) ([6]; 500 g ai/ha) | Plant response rating, Morningglory [7, 21] | Morningglory plant response rating (0 to 100 scale) ([7]; 500 g ai/ha) | Plant response rating, Pigweed [8, 21] | Pigweed plant response rating (0 to 100 scale) ([8]; 500 g ai/ha) | Plant response rating, Barnyardgrass [9, 21] | Barnyardgrass plant response rating (0 to 100 scale) ([9]; 500 g ai/ha) | Plant response rating, Crabgrass, Large [10, 21] | Crabgrass, Large plant response rating (0 to 100 scale) ([10]; 500 g ai/ha) | Plant response rating, Velvetleaf [11, 21] | Velvetleaf plant response rating (0 to 100 scale) ([11]; 500 g ai/ha) | Plant response rating, Corn [12, 21] | Corn plant response rating (0 to 100 scale) ([12]; 500 g ai/ha) | Plant response rating, Foxtail, Giant [13, 22] | Plant response rating, Foxtail, Giant [13, 23] | Plant response rating, Wheat [14, 22] | Plant response rating, Wheat [14, 23] | Plant response rating, Morningglory [15, 22] | Plant response rating, Morningglory [15, 23] | Plant response rating, Pigweed [16, 22] | Plant response rating, Pigweed [16, 23] | Plant response rating, Barnyardgrass [17, 22] | Plant response rating, Barnyardgrass [17, 23] | Plant response rating, Crabgrass, Large [18, 22] | Plant response rating, Crabgrass, Large [18, 23] | Plant response rating, Velvetleaf [19, 22] | Plant response rating, Velvetleaf [19, 23] | Plant response rating, Corn [20, 22] | Plant response rating, Corn [20, 23]

O=C1NCC(c2ccc(-c3ccccc3)cc2)C1C(=O)Nc1ccccc1C(F)(F)F (racemic) [Compound 367]
0: Plant response rating, Sedge, Umbrella ([1]; 1000 g ai/ha) | Plant response rating, Barnyardgrass ([2]; 1000 g ai/ha) | Plant response rating, Rice ([3]; 1000 g ai/ha) | Plant response rating, Ducksalad ([4]; 1000 g ai/ha) | Plant response rating, Foxtail, Giant [5, 21] | Foxtail, Giant plant response rating (0 to 100 scale) ([5]; 500 g ai/ha) | Plant response rating, Wheat [6, 21] | Wheat plant response rating (0 to 100 scale) ([6]; 500 g ai/ha) | Plant response rating, Morningglory [7, 21] | Morningglory plant response rating (0 to 100 scale) ([7]; 500 g ai/ha) | Plant response rating, Pigweed [8, 21] | Pigweed plant response rating (0 to 100 scale) ([8]; 500 g ai/ha) | Plant response rating, Barnyardgrass [9, 21] | Barnyardgrass plant response rating (0 to 100 scale) ([9]; 500 g ai/ha) | Plant response rating, Crabgrass, Large [10, 21] | Crabgrass, Large plant response rating (0 to 100 scale) ([10]; 500 g ai/ha) | Plant response rating, Velvetleaf [11, 21] | Velvetleaf plant response rating (0 to 100 scale) ([11]; 500 g ai/ha) | Plant response rating, Corn [12, 21] | Corn plant response rating (0 to 100 scale) ([12]; 500 g ai/ha) | Plant response rating, Foxtail, Giant [13, 22] | Plant response rating, Foxtail, Giant [13, 23] | Plant response rating, Wheat [14, 22] | Plant response rating, Wheat [14, 23] | Plant response rating, Morningglory [15, 22] | Plant response rating, Morningglory [15, 23] | Plant response rating, Pigweed [16, 22] | Plant response rating, Pigweed [16, 23] | Plant response rating, Barnyardgrass [17, 22] | Plant response rating, Barnyardgrass [17, 23] | Plant response rating, Crabgrass, Large [18, 22] | Plant response rating, Crabgrass, Large [18, 23] | Plant response rating, Velvetleaf [19, 22] | Plant response rating, Velvetleaf [19, 23] | Plant response rating, Corn [20, 22] | Plant response rating, Corn [20, 23]

O=C1NCC(c2ccc(F)c(F)c2)C1C(=O)Nc1n[nH]cc1Br (racemic) [Compound 361]
0: Plant response rating, Sedge, Umbrella ([1]; 250 g ai/ha) | Plant response rating, Barnyardgrass ([2]; 250 g ai/ha) | Plant response rating, Rice ([3]; 250 g ai/ha) | Plant response rating, Ducksalad ([4]; 250 g ai/ha) | Plant response rating, Foxtail, Giant [5, 21] | Foxtail, Giant plant response rating (0 to 100 scale) ([5]; 500 g ai/ha) | Plant response rating, Wheat [6, 21] | Wheat plant response rating (0 to 100 scale) ([6]; 500 g ai/ha) | Plant response rating, Morningglory [7, 21] | Morningglory plant response rating (0 to 100 scale) ([7]; 500 g ai/ha) | Plant response rating, Pigweed [8, 21] | Pigweed plant response rating (0 to 100 scale) ([8]; 500 g ai/ha) | Plant response rating, Barnyardgrass [9, 21] | Barnyardgrass plant response rating (0 to 100 scale) ([9]; 500 g ai/ha) | Plant response rating, Crabgrass, Large [10, 21] | Crabgrass, Large plant response rating (0 to 100 scale) ([10]; 500 g ai/ha) | Plant response rating, Velvetleaf [11, 21] | Velvetleaf plant response rating (0 to 100 scale) ([11]; 500 g ai/ha) | Plant response rating, Corn [12, 21] | Corn plant response rating (0 to 100 scale) ([12]; 500 g ai/ha) | Plant response rating, Foxtail, Giant [13, 22] | Plant response rating, Foxtail, Giant [13, 23] | Plant response rating, Wheat [14, 22] | Plant response rating, Wheat [14, 23] | Plant response rating, Morningglory [15, 22] | Plant response rating, Morningglory [15, 23] | Plant response rating, Pigweed [16, 22] | Plant response rating, Pigweed [16, 23] | Plant response rating, Barnyardgrass [17, 22] | Plant response rating, Barnyardgrass [17, 23] | Plant response rating, Crabgrass, Large [18, 22] | Plant response rating, Crabgrass, Large [18, 23] | Plant response rating, Velvetleaf [19, 22] | Plant response rating, Velvetleaf [19, 23] | Plant response rating, Corn [20, 22] | Plant response rating, Corn [20, 23]

O=C1NCC(c2cccc(O)c2)C1C(=O)Nc1ccccc1C(F)(F)F (racemic) [Compound 716]
0: Sedge, Umbrella plant response rating ([1]; 250 g ai/ha, scale of 0 to 100 where 0 is no effect and 100 is complete control) | Plant response rating, Barnyardgrass ([2]; 250 g ai/ha) | Plant response rating, Rice ([3]; 250 g ai/ha) | Plant response rating, Ducksalad ([4]; 250 g ai/ha) | Plant response rating, Foxtail, Giant [5, 24] | Plant response rating, Foxtail, Giant [5, 25] | Plant response rating, Wheat [6, 24] | Plant response rating, Wheat [6, 25] | Plant response rating, Morningglory [7, 24] | Plant response rating, Morningglory [7, 25] | Plant response rating, Pigweed [8, 24] | Plant response rating, Pigweed [8, 25] | Plant response rating, Barnyardgrass [9, 24] | Plant response rating, Barnyardgrass [9, 25] | Plant response rating, Crabgrass, Large [10, 24] | Plant response rating, Crabgrass, Large [10, 25] | Plant response rating, Velvetleaf [11, 24] | Plant response rating, Velvetleaf [11, 25] | Plant response rating, Corn [12, 24] | Plant response rating, Corn [12, 25] | Plant response rating, Foxtail, Giant [13, 26] | Plant response rating, Foxtail, Giant [13, 27] | Plant response rating, Wheat [14, 26] | Plant response rating, Wheat [14, 27] | Plant response rating, Morningglory [15, 26] | Plant response rating, Morningglory [15, 27] | Plant response rating, Pigweed [16, 26] | Plant response rating, Pigweed [16, 27] | Plant response rating, Barnyardgrass [17, 26] | Plant response rating, Barnyardgrass [17, 27] | Plant response rating, Crabgrass, Large [18, 26] | Plant response rating, Crabgrass, Large [18, 27] | Plant response rating, Velvetleaf [19, 26] | Plant response rating, Velvetleaf [19, 27] | Plant response rating, Corn [20, 26] | Plant response rating, Corn [20, 27]
